Test results as given in US20070117182A1, “Nucleic acids conferring transcriptional responsiveness on the RANKL gene promoter and uses thereof” (Wisconsin Alumni Research Foundation, priority 2005, published 2007).

Tests used:
[1] = system: D1-D4 regions of the RANKL gene; assay: pTK-RL(D1)-(D4) luciferase reporters in ST2 cells; assay type: cell-based, mouse
Protocol: FIG. 12. Transcriptional activities of the D1-D4 regions of the RANKL gene in the context of the TK promoter were analyzed and corresponding data is shown in FIG. 12. The D1-D4 regions of the RANKL gene were cloned into the pTK vector and termed PTK-RL(D1)-(D4). […] Cells were harvested after 24 hours and luciferase activity assessed. Luciferase was normalized using beta-gal activity. Data in FIG. 12 represent the mean of triplicate determinations (SEM).
The activity of an enhancer must be evaluated in the context of its local environment, preferentially in the context of both other enhancers and its native promoter. In the case of the RANKL gene, however, this is clearly not possible due to the numbers and the distant locations of the potential regulatory regions. […] To ensure that the viral TK promoter background was not contributing to our evaluation, the inventors cloned the mouse RANKL promoter (−100 to +65) into pGL3, inserted RL D5 and evaluated its activity in ST2 cells as well.
Transcriptional activities of the D1-D4 regions of the RANKL gene in the context of the TK promoter were analyzed and corresponding data is shown in FIG. 12. […] Cells were harvested after 24 hours and luciferase activity assessed. […]

mouse RANKL VDRE = assay: RANKL VDRE in TK promoter, luciferase reporter in ST2 cells; assay type: cell-based
Text: FIG. 8. The mouse RANKL VDRE is inducible by 1,25(OH)2D3. The mouse RANKL VDRE (sequence seen in FIG. 7) was cloned into the TK promoter, transfected into ST2 cells and evaluated for transcriptional regulation by 1,25(OH)2D3. A 10 to 15-fold induction mediated by the RL VDRE is observed. A similar induction is observed in the context of the RL minimal promoter. Data are the average of triplicate determinations, SEM.
ChIP data are of inherent low resolution, making it difficult to identify the specific sequence to which the VDR/RXR heterodimer binds within the RL-CCL. 1,25(OH)2D3-inducibility of the RL-CCL DNA fragment, however, provides the opportunity to precisely map the location of the VDRE using mutagenesis. The inventors therefore subjected the RL-CCL DNA fragment to 5′ deletion analysis using PCR and prepared a series of fragments of the RL-CCL with increasingly fore-shortened 5′ termini as illustrated in FIG. 7a. These RANKL gene fragments were similarly cloned into the pTK-luc vector and their activities together with the wildtype D5 fragment examined in response to 1,25(OH)2D3, glucocorticoids and the combination following transfection into ST2 cells. […] As well, this region of the RL-CCL also contains a number of consensus GR binding half-sites, and at least one consensus GRE duplex site.

C=C1/C(=C\C=C2/CCC[C@]3(C)[C@@H]([C@H](C)CCCC(C)(C)O)CC[C@@H]23)C[C@@H](O)C[C@@H]1O [1,25(OH)2D3]
luciferase activity of regions D1 through D4 ([1]; increasing concentrations, no added VDR): failed to show increased activity | response from D2 and D3 ([1]; with exogenous VDR expression vector): modest response | induction mediated by the RL VDRE (mouse RANKL VDRE): 10 to 15 fold
